For this assay, the target named is T1, KRAS G12C 1-169, his-tagged protein, GDP-loaded (Homo sapiens, UniProt P01116, G12C).
T1 construct: KRAS G12C 1-169, his-tagged protein, GDP-loaded
Kind of assay: Biochemical assay: covalent modification of KRAS G12C measured by mass spectrometry (RapidFire/TOF or Q-Exactive). Particulars: covalent binding to (modification of) KRAS G12C after a ten minute incubation period. The class given is binding. In a few lines:
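GDP-loaded KRAS G12C 1-169 (his-tagged) at 2 μM or 0.5 μM in 20 mM Hepes, 150 mM NaCl, 1 mM MgCl2, incubated with compound at 100, 30 or 10 μM at room temperature for 10 min, 30 min, 2 h or 24 h, then quenched with formic acid. Intact-protein LC-MS, deconvolved; percent modification from modified versus unmodified protein.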

Consider `C=CC(=O)N1C[C@H](C)N(c2nc(OCC(C)(C)N(C)C)nc3c(F)c(-c4c(C)ccc5cnn(C6CC6)c45)c(Cl)cc23)C[C@H]1C` [Compound 215, 1-((2R,5S)-4-(6-chloro-7-(1-cyclopropyl-6-methyl-1H-indazol-7-yl)-2-(2-(dimethylamino)-2-methylpropoxy)-8-fluoroquinazolin-4-yl)-2,5-dimethylpiperazin-1-yl)prop-2-en-1-one], for which the Binding % entry is “+++ (+++ indicates binding activity greater than 80%)”. With `C=CC(=O)N1C[C@H](C)N(c2nc(OC3CCOC3)nc3c(F)c(-c4c(C)ccc5cnn(C)c45)c(Cl)cc23)C[C@H]1C` (stereo partly drawn) [Compound 216, 1-((2R,5S)-4-(6-chloro-7-(1,6-dimethyl-1H-indazol-7-yl)-8-fluoro-2-(tetrahydrofuran-3-yloxy)quinazolin-4-yl)-2,5-dimethylpiperazin-1-yl)prop-2-en-1-one], the Binding % result is on record as “++ (++ indicates binding activity from 50 to 80%)”. Consider `C=CC(=O)N1C[C@H](C)N(c2nc(OC3CCCOC3)nc3c(F)c(-c4c(C)ccc5cnn(C)c45)c(Cl)cc23)C[C@H]1C` (stereo partly drawn) [Compound 225, 1-((2R,5S)-4-(6-chloro-7-(1,6-dimethyl-1H-indazol-7-yl)-8-fluoro-2-(tetrahydro-2H-pyran-3-yloxy)quinazolin-4-yl)-2,5-dimethylpiperazin-1-yl)prop-2-en-1-one], for which the Binding % result is given as “++ (++ indicates binding activity from 50 to 80%)”. With `C=CC(=O)N1C[C@H](C)N(c2nc(OCC(C)(C)N(C)C)nc3c(F)c(-c4c(C)ccc5[nH]nc(C)c45)c(Cl)cc23)C[C@H]1C` [Compound 226, 1-((2R,5S)-4-(6-chloro-7-(3,5-dimethyl-1H-indazol-4-yl)-2-(2-(dimethylamino)-2-methylpropoxy)-8-fluoroquinazolin-4-yl)-2,5-dimethylpiperazin-1-yl)prop-2-en-1-one], the Binding % result is on record as “++ (++ indicates binding activity from 50 to 80%)”. With `C=CC(=O)N1C[C@H](C)N(c2nc(N3CC(N(C)C)C3)nc3c(F)c(-c4c(F)ccc5ccn(C)c45)c(Cl)cc23)C[C@H]1C` [Compound 229, 1-((2R,5S)-4-(6-chloro-2-(3-(dimethylamino)azetidin-1-yl)-8-fluoro-7-(6-fluoro-1-methyl-1H-indol-7-yl)quinazolin-4-yl)-2,5-dimethylpiperazin-1-yl)prop-2-en-1-one], the Binding % result is “+++ (+++ indicates binding activity greater than 80%)”. The result for `C=CC(=O)N1C[C@H](C)N(c2nc(O[C@H](C)CN(C)C)nc3c(F)c(-c4c(C)ccc5cnn(C)c45)c(Cl)cc23)C[C@H]1C` [Compound 230, 1-((2R,5S)-4-(6-chloro-7-(1,6-dimethyl-1H-indazol-7-yl)-2-((R)-1-(dimethylamino)propan-2-yloxy)-8-fluoroquinazolin-4-yl)-2,5-dimethylpiperazin-1-yl)prop-2-en-1-one] reads “++ (++ indicates binding activity from 50 to 80%)”; that for `C=CC(=O)N1C[C@H](C)N(c2nc(O[C@H](C)CN(C)C)nc3c(F)c(-c4c(C)ccc5[nH]nc(C6CC6)c45)c(Cl)cc23)C[C@H]1C` [Compound 231, 1-((2R,5S)-4-(6-chloro-7-(3-cyclopropyl-5-methyl-1H-indazol-4-yl)-2-((R)-1-(dimethylamino)propan-2-yloxy)-8-fluoroquinazolin-4-yl)-2,5-dimethylpiperazin-1-yl)prop-2-en-1-one], “++ (++ indicates binding activity from 50 to 80%)”. For the compound `C=CC(=O)N1C[C@H](C)N(c2nc(O[C@H](C)CN(C)C)nc3c(F)c(-c4c(C)ccc5[nH]nc(C)c45)c(Cl)cc23)C[C@H]1C` [Compound 232, 1-((2R,5S)-4-(6-chloro-7-(3,5-dimethyl-1H-indazol-4-yl)-2-((R)-1-(dimethylamino)propan-2-yloxy)-8-fluoroquinazolin-4-yl)-2,5-dimethylpiperazin-1-yl)prop-2-en-1-one], the Binding % result was “++ (++ indicates binding activity from 50 to 80%)”. Take `C=CC(=O)N1C[C@H](C)N(c2nc(C#CCN(C)C)nc3c(F)c(-c4c(C)ccc5cnn(C)c45)c(Cl)cc23)C[C@H]1C` [Compound 233, 1-((2R,5S)-4-(6-chloro-7-(1,6-dimethyl-1H-indazol-7-yl)-2-(3-(dimethylamino)prop-1-ynyl)-8-fluoroquinazolin-4-yl)-2,5-dimethylpiperazin-1-yl)prop-2-en-1-one]: the Binding % result is reported as “+++ (+++ indicates binding activity greater than 80%)”. Consider `C=CC(=O)N1C[C@H](C)N(c2nc(OC[C@@H]3CCCN3C(C)C)nc3c(F)c(-c4c(C)ccc5[nH]nc(C6CC6)c45)c(Cl)cc23)C[C@H]1C` [Compound 237, 1-((2R,5S)-4-(6-chloro-7-(3-cyclopropyl-5-methyl-1H-indazol-4-yl)-8-fluoro-2-(((S)-1-isopropylpyrrolidin-2-yl)methoxy)quinazolin-4-yl)-2,5-dimethylpiperazin-1-yl)prop-2-en-1-one], for which the Binding % result is reported as “++ (++ indicates binding activity from 50 to 80%)”. Turning to `C=CC(=O)N1C[C@H](C)N(c2nc(OC[C@@H]3CCCN3C(C)C)nc3c(F)c(-c4c(C)ccc5cnn(C)c45)c(Cl)cc23)C[C@H]1C` [Compound 238, 1-((2R,5S)-4-(6-chloro-7-(1,6-dimethyl-1H-indazol-7-yl)-8-fluoro-2-(((S)-1-isopropylpyrrolidin-2-yl)methoxy)quinazolin-4-yl)-2,5-dimethylpiperazin-1-yl)prop-2-en-1-one], the Binding % result is reported as “++ (++ indicates binding activity from 50 to 80%)”. In the case of `C=CC(=O)N1C[C@H](C)N(c2nc(OC[C@@H]3CCCN3CC3CC3)nc3c(F)c(-c4c(C)ccc5cnn(C)c45)c(Cl)cc23)C[C@H]1C` [Compound 239, 1-((2R,5S)-4-(6-chloro-2-(((S)-1-(cyclopropylmeth-yl)pyrrolidin-2-yl)methoxy)-7-(1,6-dimethyl-1H-indazol-7-yl)-8-fluoroquinazolin-4-yl)-2,5-dimethylpiperazin-1-yl)prop-2-en-1-one], the Binding % entry is “+++ (+++ indicates binding activity greater than 80%)”. Under `C=CC(=O)N1C[C@H](C)N(c2nc(C#CCN(C)C)nc3c(F)c(-c4c(C)ccc5[nH]nc(C6CC6)c45)c(Cl)cc23)C[C@H]1C` [Compound 240, 1-((2R,5S)-4-(6-chloro-7-(3-cyclopropyl-5-methyl-1H-indazol-4-yl)-2-(3-(dimethylamino)prop-1-ylnyl)-8-fluoroquinazolin-4-yl)-2,5-dimethylpiperazin-1-yl)prop-2-en-1-one] stands “+ (+ indicates binding activity greater than 0% and up to 50%)”; under `C=CC(=O)N1C[C@H](C)N(c2nc(OC[C@H]3CC(F)(F)CN3C)nc3c(F)c(-c4c(C)ccc5cnn(C)c45)c(Cl)cc23)C[C@H]1C` [Compound 241, 1-((2R,5S)-4-(6-chloro-2-(((R)-4,4-difluoro-1-methylpyrrolidin-2-yl)methoxy)-7-(1,6-dimethyl-1H-indazol-7-yl)-8-fluoroquinazolin-4-yl)-2,5-dimethylpiperazin-1-yl)prop-2-en-1-one], “+ (+ indicates binding activity greater than 0% and up to 50%)”. With `C=CC(=O)N1C[C@H](C)N(c2nc(N3CC(C(N)=O)C3)nc3c(F)c(-c4c(C)ccc5cnn(C)c45)c(Cl)cc23)C[C@H]1C` [Compound 244, 1-(4-((2S,5R)-4-acryloyl-2,5-dimethylpiperazin-1-yl)-6-chloro-7-(1,6-dimethyl-1H-indazol-7-yl)-8-fluoroquinazolin-2-yl)azetidine-3-carboxamide], the Binding % entry is reported as “++ (++ indicates binding activity from 50 to 80%)”. As to `C=CC(=O)N1C[C@H](C)N(c2nc(OC[C@@H]3CCCN3C(C)C)nc3c(F)c(-c4c(C)ccc5[nH]nc(C)c45)c(Cl)cc23)C[C@H]1C` [Compound 247, 1-((2R,5S)-4-(6-chloro-7-(3,5-dimethyl-1H-indazol-4-yl)-8-fluoro-2-(((S)-1-isopropylpyrrolidin-2-yl)methoxy)quinazolin-4-yl)-2,5-dimethylpiperazin-1-yl)prop-2-en-1-one], the Binding % entry is “++ (++ indicates binding activity from 50 to 80%)”. The result for `C=CC(=O)N1C[C@H](C)N(c2nc(NC(C)=O)nc3c(F)c(-c4c(C)ccc5cnn(C)c45)c(Cl)cc23)C[C@H]1C` [Compound 256, N-(4-((2S,5R)-4-acryloyl-2,5-dimethylpiperazin-1-yl)-6-chloro-7-(1,6-dimethyl-1H-indazol-7-yl)-8-fluoroquinazolin-2-yl)acetamide] reads “++ (++ indicates binding activity from 50 to 80%)”; that for `C=CC(=O)N1C[C@H](C)N(c2nc(N3CC(C(N)=O)C3)nc3c(F)c(-c4c(C)ccc5[nH]nc(C6CC6)c45)c(Cl)cc23)C[C@H]1C` [Compound 257, 1-(4-((2S,5R)-4-acryloyl-2,5-dimethylpiperazin-1-yl)-6-chloro-7-(3-cyclopropyl-5-methyl-1H-indazol-4-yl)-8-fluoroquinazolin-2-yl)azetidine-3-carboxamide], “++ (++ indicates binding activity from 50 to 80%)”. The result for `C=CC(=O)N1C[C@H](C)N(c2nc(C#CCOC)nc3c(F)c(-c4c(C)ccc5cnn(C)c45)c(Cl)cc23)C[C@H]1C` [Compound 258, 1-((2R,5S)-4-(6-chloro-7-(1,6-dimethyl-1H-indazol-7-yl)-8-fluoro-2-(3-methoxyprop-1-ynyl)quinazolin-4-yl)-2,5-dimethylpiperazin-1-yl)prop-2-en-1-one] reads “+++ (+++ indicates binding activity greater than 80%)”; that for `C=CC(=O)N1C[C@H](C)N(c2nc(NC(C)=O)nc3c(F)c(-c4c(C)ccc5[nH]nc(C6CC6)c45)c(Cl)cc23)C[C@H]1C` [Compound 259, N-(4-((2S,5R)-4-acryloyl-2,5-dimethylpiperazin-1-yl)-6-chloro-7-(3-cyclopropyl-5-methyl-1H-indazol-4-yl)-8-fluoroquinazolin-2-yl)acetamide], “++ (++ indicates binding activity from 50 to 80%)”.

These data come from patent publication US11377441B2, “Covalent inhibitors of KRAS” (Araxes Pharma LLC, priority 2017, dated 2022).
